We go through 5 compounds from ChEMBL document CHEMBL4813957, “Antitubercular properties of thiazolidin-4-ones - A review” (Eur J Med Chem, 2021).

Values after ≈ are worked out from the molar mass of the structure shown.

In this assay the test system is Mycobacterium tuberculosis variant bovis. In words: Antimycobacterial activity against Mycobacterium bovis BCG ATCC 35743 measured on 8th to 12th day by nitrate reductase assay. The class given is functional. The note with it: BCG str. ATCC 35743, time 8-12 day.

In turn, `Cc1cc(NS(=O)(=O)c2ccc(N3C(=O)CSC3c3c(F)cccc3F)cc2)no1` (stereo not given) came in with an IC90 of 0.058 µg/mL (≈ 0.128 µM).

In the case of `Cc1cc(NS(=O)(=O)c2ccc(N3C(=O)CSC3c3ccc(Cl)cc3)cc2)no1` (stereo not given), it took 0.058 µg/mL (≈ 0.129 µM) to reach the 90% level (IC90). Consider `Cc1cc(NS(=O)(=O)c2ccc(N3C(=O)CSC3c3ccc(C(F)(F)F)cc3)cc2)no1` (stereo not given), for which it took 0.058 µg/mL (≈ 0.12 µM) to reach the 90% level (IC90).

In turn, `Cc1cc(NS(=O)(=O)c2ccc(N3C(=O)CSC3c3c(Cl)cccc3Cl)cc2)no1` (stereo not given) came in with an IC90 of 0.058 µg/mL (≈ 0.12 µM). `Cc1cc(NS(=O)(=O)c2ccc(N3C(=O)CSC3c3ccc(F)cc3)cc2)no1` (stereo not given) showed an IC90 of 0.058 µg/mL (≈ 0.134 µM).

Broadly, the IC90 is the concentration at which the effect reaches the 90% level. The low end stands for greater potency, the high end for weaker potency.
